Key:
human PBMCs = assay: Immunoblot of caspase-3 in PBMCs; format: cell-based
Source text: (§1) FIG. 3. Initial SAR studies: Assessing activity of PAL functionalized PTMA analogs. […] (A) PA and Ph-PA show less toxic to healthy PBMCs compared to Jurkat cells. […] (B) Immunoblot of caspase-3 in Jurkat and PBMCs with indicated conditions.
• 1) Portimine A and its functional analogs show stereo-selective acute toxicity in cancer cells (FIG. 1). […] (B) Structure of portimine related analogs: phenyl-portimine A (Ph-PA, 36) and epi-portimine A (ePA, 38). Structure of fully functionalized portimine A-based epimeric probe pair: portimine A-diazirine-alkyne (PA-DA, 35-2) and epi-portimine A-diazirine-alkyne (ePA-DA, 35-1). (C) Cell viability analysis of portimine A and analogs. Jurkat cells were treated with increasing concentrations of portimine A and analogs for 24 hours. All presented data as mean of biological replicated experiments (n=3). […] Jurkat cells were treated with portimine A or analogs for 12 hours at 10 nM. […] Structurally related negative control ePA and PB are non-toxic in all cell types in the current concentrate range. PBMCs (25k per well), Jurkat (10k per well). […] Cell cycle analysis in Jurkat cells (FIG. 2). […] Cell lysates were fractionated by sucrose gradient (5-50%) and each fraction were analyzed by western blot. eIF6 levels increase in 60S subunit fraction and decrease in ribosome-free fractions after PA treatment. […]

Jurkat cells = assay: Initial SAR: activity of PAL functionalized PTMA analogs; format: cell-based, human; settings: in the concentrate range
Source text: as §1
• 1) Portimine A and its functional analogs show stereo-selective acute toxicity in cancer cells (FIG. 1). […] (B) Structure of portimine related analogs: phenyl-portimine A (Ph-PA, 36) and epi-portimine A (ePA, 38). Structure of fully functionalized portimine A-based epimeric probe pair: portimine A-diazirine-alkyne (PA-DA, 35-2) and epi-portimine A-diazirine-alkyne (ePA-DA, 35-1). (C) Cell viability analysis of portimine A and analogs. Jurkat cells were treated with increasing concentrations of portimine A and analogs for 24 hours. All presented data as mean of biological replicated experiments (n=3). […] Jurkat cells were treated with portimine A or analogs for 12 hours at 10 nM. […] Structurally related negative control ePA and PB are non-toxic in all cell types in the current concentrate range. PBMCs (25k per well), Jurkat (10k per well). […] Cell cycle analysis in Jurkat cells (FIG. 2). Jurkat cells were treated with 10 nM of indicated compounds for 24 hours, and propodium iodide was used to identify different stages of cells by flow cytometry. […] (A) PA and Ph-PA show less toxic to healthy PBMCs compared to Jurkat cells. […] (B) Immunoblot of caspase-3 in Jurkat and PBMCs with indicated conditions. […] (A) Pharmacokinetic studies of mouse intraperitoneal (i.p.) and oral (p.o.) administration for portimine (n=3). […] Impact of PA [0.3 or 1 mg/kg intraperitoneally] on MC38 tumor growth in WT mice (n=6). (C) Kaplan-Myer survival curve of WT MC38 tumor-bearing mice (n=6) after treatment with PA as described in (D). Mice were euthanized when tumor area exceeded 2000 mm^3. Statistical analysis was performed using ANOVA analysis followed by multiple comparisons test, * p≤0.05. Treatment condition: Jurkat (60 M per condition); PA-DA/ePA-DA concentration: 0.5 uM, PA or ePA: 5 uM; Incubate with probe with or without competitors (PA, ePA) for 30 min; UV irradiated for 20 min. (0.5 uM PA-DA add a no-UV condition), Standard pulldown & biotin-enrichment and western blot analysis (Elute condition: 2× sample buffer+500 uM biotin, boil for 20 mins); Primary antibody NMD3 (ProteinTech, 1:150), Actin (BioRad, 1:10000). […] Cell lysates were fractionated by sucrose gradient (5-50%) and each fraction were analyzed by western blot. eIF6 levels increase in 60S subunit fraction and decrease in ribosome-free fractions after PA treatment. […]

HCC1806 = assay: Cell toxicity in HCC1806 cells; format: cell-based, human; settings: 36-hour treatment

SMILES	caspase-3 cleavage in human PBMCs (human PBMCs)	activity of PAL functionalized PTMA analogs (Jurkat cells)	cell toxicity in breast (HCC1806) cancer cell line (HCC1806)
C=CC1=C[C@@H]2[C@@H]3O[C@]4(CC[C@H](O4)C(C)C[C@@H](O)C3=O)CC(O)C3=NCC[C@@]32CC1 (stereo partly shown) [PA, portimine A]	but not human PBMCs	–	–
C#CCCC1(CCNC(=O)c2ccc(C3=C[C@@H]4[C@@H]5O[C@]6(CC[C@H](O6)C(C)C[C@@H](O)C5=O)CC(O)C5=NCC[C@@]54CC3)cc2)N=N1 (stereo partly shown) [PA-DA, portimine A-diazirine-alkyne]	but not human PBMCs	analogous activity to PTMA	–
C#CCCC1(CCNC(=O)c2ccc(C3=C[C@@H]4[C@@H]5O[C@]6(CC[C@H](O6)C(C)C[C@@H](O)C5=O)C[C@@H](O)C5=NCC[C@@]54CC3)cc2)N=N1 (stereo partly drawn) [ePA-DA, epi-portimine A-diazirine-alkyne]	–	no activity	–
C=CC1=C[C@@H]2[C@@H]3OC4(CC[C@H](O4)C(C)C[C@@H](O)C3=O)CC(=O)C3=NCC[C@@]32CC1 (stereo partly shown) [PB, portimine B]	–	–	minimal effects
C=CC1=C[C@@H]2[C@@H]3O[C@]4(CC[C@H](O4)C(C)C[C@@H](O)C3=O)C[C@@H](O)C3=NCC[C@@]32CC1 (stereo partly drawn) [ePA, epi-portimine A]	–	no activity	minimal effects
